Results reported in patent US10988451B2, “MCL-1 inhibitors” (Gilead Sciences, Inc., priority 2018, dated 2021).
Read-outs that look alike come from different tables or passages of the source.

What was measured:
[1] = molecular target: MCL-1/Bim (Homo sapiens (Human), UniProt Q07820); assay: MCL-1/Bim Binding AlphaLISA Assay; details: 6xHis-Mcl-1 (171-327) and biotinylated Bim peptide (51-76)
Description: MCL-1/Bim Binding AlphaLISA Assay.
Inhibition of the MCL-1 and Bim interaction was measured in the following AlphaLISA assay.
Recombinant human MCL-1 protein (C-terminal 6×His Tagged Mcl-1 containing residues 171-327) was generated at Gilead Sciences, Inc. (Foster City, Calif.). A biotinylated peptide derived from human Bim (residues 51-76) was purchased from CPC Scientific (Sunnyvale, Calif.). (CPC 834113). AlphaLISA anti-6His-acceptor beads (AL128R), AlphaScreen Streptavidin donor beads (6760002B), and Proxiplate-384 Plus (6008289) were purchased from PerkinElmer.
The AlphaLISA assay was performed in a 384-well Proxiplate in a total volume of 40 μL. The reaction mixture contained 0.0625 nM 6× His-Mcl-1 (171-327), 0.0625 nM biotinylated-Bim peptide, 10 μg/mL AlphaLISA anti-6×His-AlphaLISA acceptor beads, 40 μg/mL AlphaScreen streptavidin donor beads, and serially diluted test compounds in the binding buffer (20 mM Hepes, pH 7.5 (Teknova H1035); 150 mM NaCl (Promega V4221); 0.002% Brij 35 (Thermo Scientific 20150); 1 mM Dithiothreitol (DTT) Solution (Affymetrix 70726); 0.01% BSA (BioLabs B9000S)). 1,000× test compounds were pre-spotted onto 384-well Proxiplate (Labcyte Echo) by Echo 555 Liquid Handler (Labcyte Inc., San Jose, Calif.) followed by incubation of 5 μl Mcl-1(171-327) for 1 hour. Then 5 μL Bim (51-76) was added and incubated for 2 hours. Five μL AlphaLISA anti-6His-AlphaLISA acceptor beads were then added for 1 hour followed by addition of 5 μL AlphaScreen streptavidin donor beads for 1 hour. The reaction plates were then read on an Envision multimode reader (PerkinElmer) using AlphaScreen settings. […] Percent inhibition was calculated as shown below: % Inhibition=100%*(Well−Neg)/(Pos−Neg) Neg: negative control, DMSO Pos: positive control, no Mcl-1 protein, no biotinylated-Bim peptide

[2] = tested on: SKBR3 cells; assay: SKBR3 Cell Viability Assay; assay type: cell-based; details: CellTiter Glo, read-out: MCL-1 CV SKBR3 EC50
Description: SKBR3 Cell Viability Assay Materials
SKBR3 Cells (ATCC HTB-30) were obtained from ATCC (Manassas, Va.) and cultured in McCoy 5A's medium (ATCC 30-2007)+10% fetal bovine serum (SH30071.03, HyClone, Pittsburgh, Pa.) plus 1× Penicillin-Streptomycin L-glutamine (Corning 30-009-C1, Corning, N.Y.)).
The cell viability assay was conducted in a 384-well tissue culture plate (Grenier 781086, Monroe, N.C.) in a total volume of 70 μL. Test compounds were prepared in 1,000×, serially diluted, and pre-spotted into 384-well tissue culture plate by Echo 555 Liquid Handler (Labcyte Inc., San Jose, Calif.). Seventy μ1 of 6,000 SKBR3 cells were dispensed into each well of the plate and incubated at 37° C. with 5% CO2 for 72 hours. At the end of incubation, 2× CellTiter Glo (CTG) reagents (1 part buffer with 2 parts substrate) (Promega, Madison, Wis.) were prepared, and the plate and the reagent were equilibrated to room temperature for 30 minutes. CTG reagent was added to each plate by Biomek FX at 20 μL/well with 5 times pipetting and mixing to induce cell lysis. Luminescence was read by Envision multimode reader (PerkinElmer). […] Percent inhibition was calculated as followed: % Inhibition=100%*(Well−Neg)/(Pos−Neg) Neg, negative control, DMSO Pos, positive control, 10 μM Puromycin

Chain of MCL-1/Bim (Q07820 171-327): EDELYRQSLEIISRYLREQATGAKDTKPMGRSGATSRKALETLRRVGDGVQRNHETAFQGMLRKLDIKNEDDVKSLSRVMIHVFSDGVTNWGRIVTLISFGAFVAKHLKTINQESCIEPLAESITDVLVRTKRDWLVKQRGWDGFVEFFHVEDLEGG

In the case of `CCC(=O)NS1(=O)=NC(=O)c2ccc3c(c2)N(C[C@@H]2CC[C@H]2[C@@H](OC)/C=C/CCC1)C[C@@]1(CCCc2cc(Cl)ccc21)CO3` (single isomer, unassigned) [Example 4], the IC50 [1] is reported as 0.7 nM.

`CCOC(=O)NS1(=O)=NC(=O)c2ccc3c(c2)N(C[C@@H]2CC[C@H]2[C@@H](OC)/C=C/CCC1)C[C@@]1(CCCc2cc(Cl)ccc21)CO3` (single isomer, unassigned) [Example 10] was tested, and the IC50 [1] was 3.6 nM.

Work on `COc1nn(C)cc1C(=O)NS1(=O)=NC(=O)c2ccc3c(c2)N(C[C@@H]2CC[C@H]2[C@@H](OC)/C=C/C[C@H](C)C1)C[C@@]1(CCCc2cc(Cl)ccc21)CO3` (single isomer, unassigned) [Example 388] yielded an EC50 ([2]; Homo sapiens, SK-BR-3, 72 h) of 1400 nM.

Compound `CCC(=O)N[S@]1(=O)=NC(=O)c2ccc3c(c2)N(C[C@@H]2CC[C@H]2[C@@H](OC)/C=C/CCC1)C[C@@]1(CCCc2cc(Cl)ccc21)CO3` [Example 3] has an IC50 [1] of 4.1 nM.

For `CO[C@H]1/C=C/CCC[S@@](N)(=O)=NC(=O)c2ccc3c(c2)N(C[C@@H]2CC[C@H]21)C[C@@]1(CCCc2cc(Cl)ccc21)CO3` [Example 5], the IC50 [1] was 60.2 nM.

Work on `CCOC(=O)N[S@]1(=O)=NC(=O)c2ccc3c(c2)N(C[C@@H]2CC[C@H]2[C@@H](OC)/C=C/CCC1)C[C@@]1(CCCc2cc(Cl)ccc21)CO3` [Example 9] yielded an IC50 [1] of 6.6 nM.

Compound `CCC(=O)N[S@@]1(=O)=NC(=O)c2ccc3c(c2)N(C[C@@H]2CC[C@H]2[C@@H](OC)CCCCC1)C[C@@]1(CCCc2cc(Cl)ccc21)CO3` [Example 11] has an IC50 [1] of 6.5 nM.

`CCNC(=O)N[S@@]1(=O)=NC(=O)c2ccc3c(c2)N(C[C@@H]2CC[C@H]2[C@@H](OC)CCCCC1)C[C@@]1(CCCc2cc(Cl)ccc21)CO3` [Example 13] gave an IC50 [1] of 1.8 nM.

`CCNC(=O)N[S@@]1(=O)=NC(=O)c2ccc3c(c2)N(C[C@@H]2CC[C@H]2[C@@H](OC)CCCCC1)C[C@@]1(CCCc2cc(Cl)ccc21)CO3` [Example 14] gave an IC50 [1] of 0.3 nM.

`CCC(=O)N[S@@]1(=O)=NC(=O)c2ccc3c(c2)N(C[C@@H]2CC[C@H]2[C@@H](OC)CCCCC1)C[C@@]1(CCCc2ccccc21)CO3` [Example 16] was tested, and the IC50 [1] was 4.2 nM.

Work on `CO[C@H]1/C=C/CCC[S@@](=O)(NC(=O)CC2CC2)=NC(=O)c2ccc3c(c2)N(C[C@@H]2CC[C@H]21)C[C@@]1(CCCc2cc(Cl)ccc21)CO3` [Example 21] yielded an EC50 ([2]; 72 hours) of 1300 nM.

Work on `CO[C@H]1/C=C/CCC[S@@](=O)(NC(=O)CC(F)(F)F)=NC(=O)c2ccc3c(c2)N(C[C@@H]2CC[C@H]21)C[C@@]1(CCCc2cc(Cl)ccc21)CO3` [Example 23] yielded an EC50 ([2]; 72 hours) of 1450 nM.

With `CO[C@H]1/C=C/CCC[S@@](=O)(NC(=O)C2COC2)=NC(=O)c2ccc3c(c2)N(C[C@@H]2CC[C@H]21)C[C@@]1(CCCc2cc(Cl)ccc21)CO3` [Example 24] the EC50 ([2]; 72 hours) was 891 nM.

Work on `CO[C@H]1/C=C/CCC[S@@](=O)(NC(=O)C2CC2)=NC(=O)c2ccc3c(c2)N(C[C@@H]2CC[C@H]21)C[C@@]1(CCCc2cc(Cl)ccc21)CO3` [Example 27] yielded an EC50 ([2]; 72 hours) of 2080 nM.

For `CO[C@H]1/C=C/CCC[S@@](=O)(NC(=O)CCS(C)(=O)=O)=NC(=O)c2ccc3c(c2)N(C[C@@H]2CC[C@H]21)C[C@@]1(CCCc2cc(Cl)ccc21)CO3` [Example 28], the EC50 ([2]; 72 hours) was 8410 nM.

With `CO[C@H]1/C=C/CCC[S@@](=O)(NC(=O)Cc2ccnn2C)=NC(=O)c2ccc3c(c2)N(C[C@@H]2CC[C@H]21)C[C@@]1(CCCc2cc(Cl)ccc21)CO3` [Example 29] the EC50 ([2]; 72 hours) was 1840 nM.

Compound `CO[C@H]1/C=C/CCC[S@@](=O)(NC(=O)Cc2ncccn2)=NC(=O)c2ccc3c(c2)N(C[C@@H]2CC[C@H]21)C[C@@]1(CCCc2cc(Cl)ccc21)CO3` [Example 30] has an EC50 ([2]; 72 hours) of 1840 nM.

`CO[C@H]1/C=C/CCC[S@@](=O)(NC(=O)C2CCC2)=NC(=O)c2ccc3c(c2)N(C[C@@H]2CC[C@H]21)C[C@@]1(CCCc2cc(Cl)ccc21)CO3` [Example 31] showed an EC50 ([2]; 72 hours) of 2590 nM.

With `CCC(=O)N[S@@]1(=O)=NC(=O)c2ccc3c(c2)N(C[C@@H]2CC[C@H]2[C@@H](O)/C=C/CCC1)C[C@@]1(CCCc2cc(Cl)ccc21)CO3` [Example 62] the IC50 [1] was 0.4 nM.

`CCC(=O)N[S@]1(=O)=NC(=O)c2ccc3c(c2)N(C[C@@H]2CC[C@H]2[C@@H](O)/C=C/CCC1)C[C@@]1(CCCc2cc(Cl)ccc21)CO3` [Example 63] showed an IC50 [1] of 1.4 nM.

Compound `CCC(=O)N[S@]1(=O)=NC(=O)c2ccc3c(c2)N(C[C@@H]2CC[C@H]2[C@@H](OC)/C=C/CCCC1)C[C@@]1(CCCc2cc(Cl)ccc21)CO3` [Example 69] has an IC50 [1] of 4 nM.

`CO[C@H]1/C=C/C[C@H](C)C[S@@](=O)(NC(=O)NCC2CC2)=NC(=O)c2ccc3c(c2)N(C[C@@H]2CC[C@H]21)C[C@@]1(CCCc2cc(Cl)ccc21)CO3` [Example 107] gave an IC50 [1] of 0.1 nM.

`COc1nn(C)cc1C(=O)N[S@@]1(=O)=NC(=O)c2ccc3c(c2)N(C[C@@H]2CC[C@H]2[C@@H](OC)/C=C/C[C@H](C)C1)C[C@@]1(CCCc2cc(Cl)ccc21)CO3` [Example 154] gave an EC50 ([2]; Homo sapiens, SK-BR-3, 72 h) of 24.1 nM.

`CO[C@H]1/C=C/C[C@H](C)C[S@@](=O)(NC(=O)c2cc3n(c2F)CCOC3)=NC(=O)c2ccc3c(c2)N(C[C@@H]2CC[C@H]21)C[C@@]1(CCCc2cc(Cl)ccc21)CO3` [Example 174] gave an EC50 ([2]; Homo sapiens, SK-BR-3, 72 h) of 103 nM.

`COC1CCn2cc(C(=O)N[S@@]3(=O)=NC(=O)c4ccc5c(c4)N(C[C@@H]4CC[C@H]4[C@@H](OC)/C=C/C[C@H](C)C3)C[C@@]3(CCCc4cc(Cl)ccc43)CO5)cc2C1` (stereo partly shown) [Example 175] showed an EC50 ([2]; 72 hours) of 33.9 nM.

`CO[C@H]1/C=C/C[C@H](C)C[S@@](=O)(NC(=O)c2cc3n(c2)CCc2c-3cnn2C)=NC(=O)c2ccc3c(c2)N(C[C@@H]2CC[C@H]21)C[C@@]1(CCCc2cc(Cl)ccc21)CO3` [Example 208] showed an EC50 ([2]; 72 hours) of 45 nM.

`CO[C@H]1/C=C/C[C@H](C)C[S@@](=O)(NC(=O)N2C[C@@H](OC)[C@@H]2C)=NC(=O)c2ccc3c(c2)N(C[C@@H]2CC[C@H]21)C[C@@]1(CCCc2cc(Cl)ccc21)CO3` [Example 253] was tested, and the EC50 ([2]; 72 hours) was 39.2 nM.

`COC1CN(C(=O)N[S@@]2(=O)=NC(=O)c3ccc4c(c3)N(C[C@@H]3CC[C@H]3[C@@H](O)/C=C/C[C@H](C)C2)C[C@@]2(CCCc3cc(Cl)ccc32)CO4)C1` [Example 266] gave an EC50 ([2]; 72 hours) of 53.8 nM.

Compound `COc1ccc(C(=O)N[S@@]2(=O)=NC(=O)c3ccc4c(c3)N(C[C@@H]3CC[C@H]3[C@@H](OC)/C=C/C[C@H](C)C2)C[C@@]2(CCCc3cc(Cl)ccc32)CO4)cc1` [Example 273] has an EC50 ([2]; 72 hours) of 81 nM.

`COc1nn(C)cc1C(=O)N[S@@]1(=O)=NC(=O)c2ccc3c(c2)N(C[C@@H]2CC[C@H]2[C@@H](O)/C=C/[C@H](O)[C@H](C)C1)C[C@@]1(CCCc2cc(Cl)ccc21)CO3` [Example 279] showed an IC50 [1] of 0.041 nM.

In the case of `CO[C@H]1/C=C/C[C@H](C)C[S@@](=O)(NC(=O)N2CC(OC(=O)N(C)C)C2)=NC(=O)c2ccc3c(c2)N(C[C@@H]2CC[C@H]21)C[C@@]1(CCCc2cc(Cl)ccc21)CO3` [Example 292], the EC50 ([2]; 72 hours) is reported as 45.1 nM.

For `CO[C@H]1/C=C/C[C@H](C)C[S@@](=O)(NC(=O)c2cn(C)nc2OCCN2CCOCC2)=NC(=O)c2ccc3c(c2)N(C[C@@H]2CC[C@H]21)C[C@@]1(CCCc2cc(Cl)ccc21)CO3` [Example 319], the EC50 ([2]; 72 hours) was 19.9 nM.

In the case of `CO[C@H]1/C=C\C[C@H](C)[C@@H](C)[S@@](=O)(NC(=O)COC2CCOCC2)=NC(=O)c2ccc3c(c2)N(C[C@@H]2CC[C@H]21)C[C@@]1(CCCc2cc(Cl)ccc21)CO3` [Example 406], the EC50 ([2]; 72 hours) is reported as 332 nM.

`CO[C@H]1/C=C/C[C@H](C)C[S@@](=O)(NC(=O)C2CC(OC(F)F)C2)=NC(=O)c2ccc3c(c2)N(C[C@@H]2CC[C@H]21)C[C@@]1(CCCc2cc(Cl)ccc21)CO3` (stereo partly shown) [Example 431] was tested, and the IC50 [1] was 0.121 nM.
